Tests used:
DA neurons in the VTA = assay: Spontaneous DA cell firing in the VTA of anaesthetised rats (in vivo electrophysiology); parameters: species or system rat; details: mean ± SEM
From the text: In the mesolimbic system, all clinically used neuroleptics initially increase the firing rate of dopaminergic neurons (Tung et al., 1991, J. Neural Transm. Gen Sect., 84(1-2), 53-64,). After chronic administration, such neuroleptics eventually (after 3-4 weeks of treatment) decrease the firing rate to below pre-treatment levels (Skarsfeldt 1992, Synapse, 10, 25-33; White and Wang 1983, Science, 221, 1054-1057). This inhibitory effect on dopaminergic neurones, which is believed to be mediated by a depolarization blockade, is thought to be of therapeutic significance to the antipsychotic effect of neuroleptics (Grace and Bunney 1986, J. Pharmacol. Exp. Ther. 238, 1092-1100). […] The presence of KCNQ subunits on DA neurons in the VTA in rodents is well-documented but their functionality is unknown (Saganich et al. 2001, J. Neurosci. 21(13)4609-4624; Cooper et al. 2001, J. Neurosci., 21(24)9529-9540).
Subjects. Male Wistar rats (Harlan, The Netherlands) weighing 270-340 g were used. The animals were housed under a 12-hr light/dark cycle under controlled conditions for regular in-door temperature (21±2° C.) and humidity (55±5%) with food and tap water available ad libitum.
Experimental procedure. The rats were anaesthetised with an intraperitoneal injection of chloral hydrate (400 mg/kg). A femoral vein catheter was then inserted for supplementary anaesthetic injections (100 mg/kg) and drug administration. Animals were then mounted in a stereotaxic frame, the skull was exposed, and a hole (0.5×0.5 cm) was drilled above the ventral tegmental area. Extracellular single-cell recordings were performed using electrodes pulled from glass capillaries and filled with 2% Pontamine Sky Blue in 2 M NaCl. The tip of the electrode was broken under microscopic control, yielding an impedance of 2.0-8.0 MΩ at 135 Hz. The electrode was then lowered into the brain, using a hydraulic microdrive, aimed at the following coordinates: 5.5-5.0 mm posterior to Bregma; 0.5-0.9 mm lateral to the midline. Extracellular action potentials were amplified, discriminated and monitored on an oscilloscope and an audiomonitor. Discriminated spikes were collected and analysed using Spike 2 software (Cambridge Electronic Design Ltd., Cambridge, UK) on a PC-based system connected to a CED 1401 interface unit (Cambridge Electronic Design Ltd.). Presumed dopaminergic neurons were typically found 7.0-8.5 mm beneath the brain surface and were characterised by (1) a slow and irregular firing pattern (0.5-10 Hz), and (2) triphasic action potentials with a predominant positive component, a negative component followed by a minor positive component, with an overall duration >2.5 ms (Bunney et al. 1973, J. Pharmacol. Exp. Ther., 185, 560-571.).
Administration of compounds. […] These i.v. doses match the s.c. dose range of 0-10 mg/kg.
Statistical analysis. Drug effects were assessed by statistical comparison of the mean firing rate calculated from the 2-3 min period immediately before the first drug administration (baseline) to the mean firing rate calculated from at least 60 s at the maximal drug effect. Data were analysed statistically by a one-way ANOVA followed by Student-Newman-Keuls posthoc test. A p-value less than 0.05 was considered significant.

[1] = system: conditioned avoidance response in rats; assay: Conditioned avoidance response in rats; format: in vivo, rat; details: rats
From the text: In the conditioned avoidance response (CAR) model, rats are trained to respond to a stimulus within a fixed time by moving from one place to another in order to avoid a footshock. Antipsychotics selectively suppress the avoidance response within a certain dose-range without suppressing escape behavior elicited by the appearance of the footshock. The CAR model is considered to be a predictive and reliable animal model that is sensitive to compounds with an antipsychotic potential.
Subjects. Male Wistar rats (Taconic, Denmark) weighing 150 g at the beginning of the study are used. The rats are housed ii pairs and maintained on a 12 h light/dark cycle (lights on 06:00). The animals are fed once daily (approx. 6 pellets/rat) in order to keep the rats at 80% of their free-feeding weight. Water is available ad libitum. Temperature (21±1° C.) and relative humidity (55±5%) are automatically controlled.
Experimental procedure. Conditioned avoidance testing is conducted using four automated shuttle-boxes (ENV-010M, MED-Associates) each placed in a sound-attenuated chamber. Each box is divided into two compartments by a partition with an opening. The position of the animal and crossings from one compartment to the other are detected by two photocells placed on either side of the dividing wall. Upon presentation of the conditioned stimuli (CS), tone and light, the animals have 10 s to cross to the other compartment of the shuttle-box in order to turn the CS off (end the trial) and avoid the appearance of the unconditioned stimulus (UCS). If the rat remains in the same compartment for more than 10 s, the UCS is presented as 0.5 mA scrambled foot-shocks until escape is performed or 10 s in maximal duration. The following behavioural variables are evaluated: avoidance (response to CS within 10 s); escape (response to CS+UCS); escape failures (failure to respond); intertrial crosses and locomotor activity. The rats are habituated to the shuttle-box 3 min before each test session. During training each test session consists of 30 trials with intertrial intervals varying randomly between 20 s and 30 s. Training is carried until the rats display an avoidance of 80% or more, on 3 consecutive days. A test is preceded by a pre-test the day before giving rise to a baseline value for each animal, thus the animals serve as their own control. Seven to eight rats are used at each dose level. A parallel control group receiving the vehicle of the test compound is also included.
Administration of compound.
Statistical analyses. The effects of compounds on avoidance and escape failure behaviours were statistically evaluated by means of a two-way repeated measures ANOVA followed by post hoc comparisons (Student-Newman-Keuls Method) when appropriate. P-levels <0.05 were considered statistically significant.

anticonvulsant tests = details: oral and intraperitoneal administration, rats and mice (Rostock et al. 1996); cited from earlier work
[2] = system: incidence of seizures in epileptic patients; details: clinical trials (Bialer et al. 2002); cited from earlier work
[3] = system: K(+) current in neuronal cells; details: cited from earlier work
KCNQ channels = details: Wuttke et al. 2005; cited from earlier work
[4] = system: dopaminergic neurons in the ventral tegmental area; details: ex vivo (Hansen et al. 2005); cited from earlier work
[5] = Inhibition of baseline motility in vehicle-pretreated, vehicle-challenged mice; details: NMRI, mouse, in vivo

CCOC(=O)Nc1ccc(NCc2ccc(F)cc2)cc1N
Spontaneous DA cell firing rate (DA neurons in the VTA; cumulated dose 0.3 mg/kg i.v.): 95.4 ± 5.0 (4) percentage of baseline firing rate
Spontaneous DA cell firing rate (DA neurons in the VTA; cumulated dose 1.0 mg/kg i.v.): 90.5 ± 4.6 (5) percentage of baseline firing rate
Spontaneous DA cell firing rate (DA neurons in the VTA; cumulated dose 2.0 mg/kg i.v.): 81.1 ± 5.1 (5) percentage of baseline firing rate
Spontaneous DA cell firing rate (DA neurons in the VTA; cumulated dose 4.0 mg/kg i.v.): 67.1 ± 3.7 (4) percentage of baseline firing rate
Spontaneous DA cell firing rate (DA neurons in the VTA; cumulated dose 6.0 mg/kg i.v.): 60.6 ± 0.7 (2) percentage of baseline firing rate
% inhibition of avoidance. Relative to baseline. ([1]; 5 mg/kg s.c. 30 min before the test): 1%
% inhibition of avoidance. Relative to baseline. ([1]; 10 mg/kg s.c. 30 min before the test): 59%
Escape failures (effect on motor performance) ([1]; all tested doses, data not shown): None of the tested doses caused any incidences of escape failures
Activity in a range of anticonvulsant tests (anticonvulsant tests): active after oral and intraperitoneal administration in rats and mice in a range of anticonvulsant tests
Incidence of seizures in epileptic patients [2]: shown effectiveness in reducing the incidence of seizures in epileptic patients
Activation of a K(+) current [3]: activate a K(+) current in neuronal cells
Binding to KCNQ channels (KCNQ channels): bind to KCNQ channels
Firing of dopaminergic neurons in the ventral tegmental area [4]: suppress the firing of dopaminergic neurons in the ventral tegmental area ex vivo
ED50 at 30 min [5]: 7.6 mg/kg

— patent US20090118285A1, “USE OF KCNQ-OPENERS FOR TREATING OR REDUCING THE SYMPTOMS OF SCHIZOPHRENIA” (H. Lundbeck A/S, priority 2006, published 2009)
